Laboratory results as given in patent US11285160B2, “Pharmaceutical composition and method for treatment of non-alcoholic fatty liver disease” (MITSUBISHI TANABE PHARMA CORPORATION, priority 2016, dated 2022).

Key:
CDAA diet-loaded rats = test: Hepatic fibrosis development in NASH animal model (CDAA diet-loaded rat), repeated oral administration for 10 weeks; assay type: in vivo, F344 rats; conditions: for Sirius red positive areas (%) (mean ± S.E.): primary endpoint; for Fibrosis development score (mean ± S.E.): score 0-4 (Table 3), secondary endpoint
From the text: Some heads of F344 rats (5-week-old, body weight 67.5 to 87.5 g, purchased from Japan SLC, Inc.) were housed (for quarantine inspection and acclimatization) for 15 days while receiving a normal diet, and were then used as a test animal. The rats were divided into six treatment groups by stratified random allocation using body weight as a randomization factor (each 10 heads of the rats per group). The test compounds (that is, the compound (I) or eplerenone) were suspended into 0.5% aqueous carmellose sodium solution containing a vehicle (0.1% polyoxyethylene hydrogenated castor oil (HCO-60, manufactured by Nikko Chemicals Co., Ltd.)), and the resultant suspensions were used (10 mL/kg). The rats were loaded with a CDAA diet (choline deficient L-amino acid defined diet), and simultaneously with the loading, were received with a repeated oral administration of the above-mentioned compound (I) (1 mg/kg, 3 mg/kg, and 10 mg/kg) at once per day for 10 weeks (hereinafter, which is referred to as “Compound (I)-treated group”). Also, the rats that were loaded with the CDAA diet and were received with the administration of the above-mentioned vehicle (10 mL/kg) were assigned to “disease control group”, and also the rats that were loaded with the CSAA diet and were received with the administration of the above-mentioned vehicle (10 mL/kg) were assigned to “normal control group”. While, “positive control group” rats were loaded with the CDAA diet and were received with a repeated oral administration of eplerenone (100 mg/kg) at once per day for 10 weeks.
After the administration, the test tissues were sampled from lamella of the extracted liver, and the pathological specimens were constructed. Each effect of the respective test compound on NASH was examined using the Sirius red positive areas of the specimens as a primary endpoint. Also the fibrosis development scores of hepatic pathological specimens in each group were examined as the secondary endpoint.

[1] = test system: UGT enzymes (Uridine diphosphate glucuronosyltransferase); test: Main metabolic pathway of compound (I); assay type: in vitro ADME; conditions: estimated
[2] = background statement; cited from earlier work
[3] = biological target: CYP3A4 (cytochrome P450 3A4) (Homo sapiens, UniProt P08684); conditions: Non-Patent documents 12 and 13; cited from earlier work
CYP3A4 (cytochrome P450 3A4), sequence (P08684 whole entry): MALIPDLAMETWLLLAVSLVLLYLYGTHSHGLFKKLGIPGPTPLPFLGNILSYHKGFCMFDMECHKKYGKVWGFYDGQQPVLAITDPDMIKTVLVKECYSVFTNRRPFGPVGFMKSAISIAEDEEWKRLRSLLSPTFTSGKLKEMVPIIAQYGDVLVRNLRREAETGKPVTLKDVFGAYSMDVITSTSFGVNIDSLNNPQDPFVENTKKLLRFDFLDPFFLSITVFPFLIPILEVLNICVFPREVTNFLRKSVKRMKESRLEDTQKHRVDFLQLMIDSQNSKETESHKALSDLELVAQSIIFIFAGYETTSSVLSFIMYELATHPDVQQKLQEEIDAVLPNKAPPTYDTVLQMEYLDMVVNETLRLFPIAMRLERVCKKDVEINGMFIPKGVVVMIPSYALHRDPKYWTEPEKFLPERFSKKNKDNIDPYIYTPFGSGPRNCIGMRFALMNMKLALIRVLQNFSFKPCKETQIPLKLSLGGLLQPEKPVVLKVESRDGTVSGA

[4] = CDAA diet-loaded rats, 1 mg/kg oral once per day for 10 weeks
[5] = CDAA diet-loaded rats, 3 mg/kg oral once per day for 10 weeks
[6] = CDAA diet-loaded rats, 10 mg/kg oral once per day for 10 weeks
[7] = CDAA diet-loaded rats, 100 mg/kg oral once per day for 10 weeks

Main metabolic pathway [1]	Compound	Sirius red positive areas as compared with disease control group (CDAA diet-loaded rats; 1 mg/kg, 3 mg/kg and 10 mg/kg-treated groups, all)	Fibrosis development scores as compared with disease control group (CDAA diet-loaded rats; 3 mg/kg-treated group and 10 mg/kg-treated group)	Sirius red positive areas (%) (mean ± S.E.) (CDAA diet-loaded rats; [4])	Fibrosis development score (mean ± S.E.) (CDAA diet-loaded rats; [4])	Sirius red positive areas (%) (mean ± S.E.) (CDAA diet-loaded rats; [5])	Fibrosis development score (mean ± S.E.) (CDAA diet-loaded rats; [5])	Sirius red positive areas (%) (mean ± S.E.) (CDAA diet-loaded rats; [6])	Fibrosis development score (mean ± S.E.) (CDAA diet-loaded rats; [6])	Progression of fibrosis development of liver (CDAA diet-loaded rats; CDAA diet-loaded rats, overall conclusion)	Sirius red positive area value at the lowest dose in comparison with eplerenone at a higher dose (CDAA diet-loaded rats; compound (I) lowest dose (1 mg/kg) vs eplerenone 100 mg/kg)	Fibrosis development scores as compared with disease control group (CDAA diet-loaded rats; 100 mg/kg, positive control group)	Sirius red positive areas (%) (mean ± S.E.) (CDAA diet-loaded rats; [7])	Fibrosis development score (mean ± S.E.) (CDAA diet-loaded rats; [7])	Half-life in blood [2]	Metabolizing enzyme [3]
glucuronide conjugation by UGT enzymes	CC1(C)Oc2cc(NS(C)(=O)=O)ccc2N(c2ccc(F)cc2)C1=O [Compound (I)]	significantly lower	significantly lower value	4.0 ± 0.3	3.0 ± 0.0	3.6 ± 0.4	2.7 ± 0.2	1.8 ± 0.2	2.2 ± 0.1	significantly inhibit	significantly lower area value	–	–	–	–	–
–	COC(=O)[C@@H]1CC2=CC(=O)CC[C@]2(C)[C@@]23O[C@@H]2C[C@@]2(C)[C@@H](CC[C@@]24CCC(=O)O4)[C@H]13 [Eplerenone, eplerenone, reference compound]	–	–	–	–	–	–	–	–	–	–	not significantly different	2.8 ± 0.2	3.0 ± 0.0	short half-life	metabolized mainly by CYP3A4
